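Following 48 hours of exposure in 96-well plates, responses at five concentrations were used to interpolate endpoints linearly. TGI is the concentration that stops growth completely.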
Experiments:
Test in all cases: DTP human tumour cell line panel, 48 h
NCI-H522 lung = tested on: NCI-H522 lung
TK-10 renal = tested on: TK-10 renal
MDA-N = tested on: MDA-N
SR leukemia = tested on: SR leukemia
SK-MEL-28 melanoma = tested on: SK-MEL-28 melanoma
MDA-MB-231 breast = tested on: MDA-MB-231 breast
NCI/ADR-RES ovarian = tested on: NCI/ADR-RES ovarian
PC-3 prostate = tested on: PC-3 prostate
A549 NSCLC = tested on: A549 NSCLC
SF-539 CNS = tested on: SF-539 CNS
UACC-62 melanoma = tested on: UACC-62 melanoma
OVCAR-4 ovarian = tested on: OVCAR-4 ovarian
ACHN renal = tested on: ACHN renal
SW-620 colon = tested on: SW-620 colon
CCRF-CEM leukemia = tested on: CCRF-CEM leukemia
OVCAR-3 ovarian = tested on: OVCAR-3 ovarian
SF-268 CNS = tested on: SF-268 CNS
HCT-15 colon = tested on: HCT-15 colon
M14 melanoma = tested on: M14 melanoma
HCT-116 colon = tested on: HCT-116 colon
786-0 renal = tested on: 786-0 renal
SNB-75 CNS = tested on: SNB-75 CNS
DU-145 prostate = tested on: DU-145 prostate
SF-295 CNS = tested on: SF-295 CNS
LOX IMVI melanoma = tested on: LOX IMVI melanoma
IGROV1 ovarian = tested on: IGROV1 ovarian
SN12C renal = tested on: SN12C renal
NCI-H226 lung = tested on: NCI-H226 lung
UACC-257 melanoma = tested on: UACC-257 melanoma
SK-MEL-5 melanoma = tested on: SK-MEL-5 melanoma
HCC-2998 colon = tested on: HCC-2998 colon
T-47D breast = tested on: T-47D breast
NCI-H460 lung = tested on: NCI-H460 lung
CAKI-1 renal = tested on: CAKI-1 renal
SK-MEL-2 melanoma = tested on: SK-MEL-2 melanoma
OVCAR-8 ovarian = tested on: OVCAR-8 ovarian
COLO 205 colon = tested on: COLO 205 colon
HOP-62 NSCLC = tested on: HOP-62 NSCLC
HT29 colon = tested on: HT29 colon
HOP-92 NSCLC = tested on: HOP-92 NSCLC
OVCAR-5 ovarian = tested on: OVCAR-5 ovarian
NCI-H23 lung = tested on: NCI-H23 lung
A498 renal = tested on: A498 renal
HS 578T breast = tested on: HS 578T breast
HL-60(TB) leukemia = tested on: HL-60(TB) leukemia
EKVX NSCLC = tested on: EKVX NSCLC
U251 CNS = tested on: U251 CNS
K-562 leukemia = tested on: K-562 leukemia
MALME-3M melanoma = tested on: MALME-3M melanoma
RXF 393 renal = tested on: RXF 393 renal
SNB-19 CNS = tested on: SNB-19 CNS
MOLT-4 leukemia = tested on: MOLT-4 leukemia
MDA-MB-435 = tested on: MDA-MB-435
KM12 colon = tested on: KM12 colon
SK-OV-3 ovarian = tested on: SK-OV-3 ovarian

Measured: TGI

OC[C@H]1C[C@@H]2Cc3ccccc3N2N1
> 100 µM: all assays above

— PubChem BioAssay (NCI)
